Experimental data: patent publication US20170251655A2, “COMPOSITIONS AND METHODS FOR CAPTURING, KILLING OR REPELLING BED BUGS” (OLFACTOR LABORATORIES, INC., priority 2014, published 2017)
Counter-ions that a name gives are not always drawn.

Key:
bed bugs [1] = experiment: Bed bug luring assay (baited cup, overnight); type: in vivo; conditions: for Attractant Category: category from attractant activity value; for Att Act (attractant activity value): percentage of 10 bed bugs in baited cup, cottonball with 100 microliters compound or combination solution, overnight, dark
Procedure: Assays were conducted to measure the ability of compounds and compound combinations to attract bed bugs. A testing arena habitat comprising a small plastic container was placed inside of a larger, secondary container. The top half inch was removed from two bathroom sized plastic cups and each cup was placed on opposite sides of the testing arena habitat, one inch away from the wall. Each outer part of the cup was textured using sandpaper, as bed bugs cannot climb smooth surfaces. A paper towel was used to line the floor of the testing arena habitat. The top, removed portion of one of the cups was placed mouth side down in the center of the arena. In one of the cups, a cottonball was placed and treated with 100 microliters of compound or compound combination solution [comprising a total of […] of compound(s).] Ten bed bugs were placed within the center cut off cup top and the testing arena habitat was covered and placed within a dark, climate controlled room overnight.
The next day, the number of bed bugs that crawled into the baited cup were recorded and the attractant activity value was calculated. As used herein, the attractant activity value represents the percentage of bugs that crawled into the baited cup as compared to the total number of bed bugs. In the Table, “Att Act” refers to attract activity value.

[2] = test system: bed bug (Cimex lectularius); experiment: Bed bug threshold assay (mouse bait, treated filter paper on acrylic rod bridges); type: in vivo; conditions: 90 μl isopropyl alcohol + 10 μl testing compound on filter paper; bed bugs crossing treated vs control; mouse as bait; 10 minutes
Procedure: Compounds and blends of the present invention were assayed for their ability to modify bed bug (Cimex lectularius) behavior using a bed bug threshold assay. Three interceptors were laid side by side and acrylic rods were stuck on to the sides with putty so that they went from interceptor to interceptor forming bridges. Paper towels sections of 6 inches by 2 inches were placed so that they hung off of the ends of the acrylic rods to form harborage for bed bugs. Next, 125 mm pieces of Whatman Filter paper treated either with the compound of interest (90 μl isopropyl alcohol+10 μl testing compound) or with control solution of 100 μl isopropyl alcohol were stuck to the top of the acrylic rods with the compound impregnated filter on one rod and control impregnated filter on the other. In the middle interceptor a mouse was placed as bait for the bed bugs. In either outside interceptors 10 bed bugs each were placed in holding dishes, allowed to equilibrate for 10 minutes then released on the harborage. Video footage at 1 second time intervals was obtained for 10 minutes then analyzed for bed bug movements. Repellency of any given compound or blend was calculated by counting how many bed bugs traversed the acrylic rods across either the treated or the control Whatman filter paper. Percent repellency was determined by comparing the number of bed bugs which crossed the treated Whatman filter paper to the number of bed bugs which crossed the control Whatman filter paper.

[3] = test system: bed bug (Cimex lectularius); experiment: Bed bug repellency assay (filter paper harborage, petri dish); type: in vivo; conditions: statement in the description, test not named
[4] = test system: bed bug (Cimex lectularius); experiment: as above; type: in vivo; conditions: for % Repellency / Repellency Category: individual compounds; for % Repellency: 10 microliters compound + 90 microliters isopropyl alcohol on filter paper tent, 10 bed bugs, 5 minutes, vs control; for Repellency Category: category from % repellency; for Ind % Rep (percent repellency of the individual compound): values obtained in Example 1 for the individual compound of a blend
Procedure: Compounds and blends of the present invention were assayed for their ability to modify bed bug (Cimex lectularius) behavior using a bed bug repellency assay. This assay takes advantage of the bed bug's natural instinct to seek harborage. Two petri dishes were obtained and the inner areas of each were sanded down (leaving the perimeter smooth.) Talc was applied on the perimeter and on the inside walls of the petri dishes with a small paint brush to prevent bed bugs from escaping. A cut off top portion of a plastic cup was placed upside down in the center of one petri dish to create a holding arena for the bed bugs. A large plastic secondary container was gathered and a paper towel was laid down inside the bottom. The petri dish was then placed inside and ten bed bugs were placed inside the cut off portion of the cup.
Next, two pieces of filter paper were cut down the middle to yield 4 equally sized halves. Three pieces were placed inside a glass dish […] and the remaining piece was placed in a separate dish. All four pieces were folded down the middle to create a “tent” or “harborage” when laid such that the folded crease faced up. 100 microliters of isopropyl alcohol was pipetted into three pieces of filter paper (all housed in the first glass dish.) In a separate 4 ml vial, 90 microliters of isopropyl alcohol was combined and vortexed with 10 microliters of the compound or compound combination being tested. 100 microliters of this solution [comprising a total of […] of compound(s)] was pipetted onto the filter paper in the separate dish. All filter papers were then allowed to dry. Once dry, experiments were conducted first with two filter paper halves comprising only the isopropyl alcohol (control experiment) and then with the remaining filter paper halves [one with only isopropyl alcohol and one comprising the test compound(s).] Filter paper halves were placed on opposing sides of experimental petri dishes and bed bugs were allowed to move freely within the dishes by removal of the plastic cup top. Movement was allowed to continue for 5 minutes before the number bed bugs beneath each filter paper tent was recorded.

C. lectularius = conditions: population of C. lectularius isolated in Arkansas; cited from earlier work
bed bugs [5] = conditions: study performed in Africa; cited from earlier work

| Compound | Attractant Category (bed bugs [1]) | Att Act (attractant activity value) (bed bugs [1]) [%] | % Repellency [2] [%] | % Repellency [4] [%] | Repellency Category [4] | also measured |
| --- | --- | --- | --- | --- | --- | --- |
| CCCOC=O [BBC070, propyl formate] | Moderate (Compounds or blends with an attractant activity value of 20-40% were categorized as moderate attractants) | 30 |  |  |  |  |
| CC1=C2CCC(C)CC2OC1=O (stereo not drawn) [BBC054, menthalactone] |  |  | 95 |  |  |  |
| C=CCc1ccc(O)c(OC)c1 [BBC002, eugenol] |  |  |  |  |  | bed bug repellency, in words [3]: repel bed bugs |
| CCCC1CCC(=O)O1 (stereo not drawn) [BBC021, gamma-heptalactone] |  |  | 91 | 71 | Strong (Compounds with a percent repellency value of 60-80% were categorized as strong repellents) | Ind % Rep (percent repellency of the individual compound) [4]: 71% |
| O=C1CCCC1 [BBC069, cyclopentanone] | Strong (Compounds or blends with an attractant activity value of 40-60% were categorized as strong attractants) | 50 |  |  |  |  |
| COc1nccnc1C [BBC067, 2-methoxy-3-methylpyrazine] | Mild (Compounds or blends with an attractant activity value of 10-20% were categorized as mild attractants) | 10 |  |  |  |  |
| COC(Cc1ccccc1)OC [BBC012, phenylacetaldehyde dimethyl acetate] |  |  |  | 100 | Very Strong (compounds with a percent repellency value of 80-100% were categorized as very strong repellents) |  |
| C/C=C(\C)C=O [BBC062, trans-2-methyl-2-butenal] |  |  |  |  |  | Ind % Rep (percent repellency of the individual compound) [4]: 0% |
| CCCCCCOC=O [BBC035, hexyl formate] | Moderate (Compounds or blends with an attractant activity value of 20-40% were categorized as moderate attractants) | 30 |  |  |  |  |
| ultrazur [BBC016] |  |  | 64 | 84 | Very Strong (compounds with a percent repellency value of 80-100% were categorized as very strong repellents) |  |
| Clc1ccc(C(c2ccc(Cl)cc2)C(Cl)(Cl)Cl)cc1 [DDT, dichlorodiphenyltrichloroethane] |  |  |  |  |  | LD50 (C. lectularius): 100,000 ppm; bed bug activity level after treatment (bed bugs [5]): higher activity level |
| COC(=O)CCC(C)=O [BBC049, methyl levulinate] | Mild (Compounds or blends with an attractant activity value of 10-20% were categorized as mild attractants) | 10 |  |  |  |  |
| C/C=C/C(=O)OC [BBC039, methyl crotonate] | Moderate (Compounds or blends with an attractant activity value of 20-40% were categorized as moderate attractants) | 20 |  |  |  |  |
| CCCC(=O)CCC [BBC057, heptanone-4] |  |  | 38 |  |  |  |
| COc1cnccn1 [BBC047, 2-methoxypyrazine] | Moderate (Compounds or blends with an attractant activity value of 20-40% were categorized as moderate attractants) | 30 |  |  |  |  |
| COC(/C=C/c1ccccc1)OC [BBC013, cinnamic aldehyde dimethyl acetal] |  |  |  | 90 | Very Strong (compounds with a percent repellency value of 80-100% were categorized as very strong repellents) |  |
| CC(=O)/C=C/C=C(C)C [BBC014, methyl heptadienone] |  |  | 64 | 87 | Very Strong (compounds with a percent repellency value of 80-100% were categorized as very strong repellents) |  |
| O=CCCc1ccccc1 [BBC005, phenyl propyl aldehyde] |  |  | 74 | 100 | Very Strong (compounds with a percent repellency value of 80-100% were categorized as very strong repellents) |  |
| methoxy cinnamic aldehyde [BBC046] |  |  | 92 | 23 | Mild (Compounds with a percent repellency value of 20-40% were categorized as mild repellents) |  |
| CCCC(C)=O [BBC065, 2-pentanone] | Moderate (Compounds or blends with an attractant activity value of 20-40% were categorized as moderate attractants) | 30 |  |  |  |  |
| 2-methoxy-3(5or6) isopropylpyrazine [BBC006] |  |  | 100 | 100 | Very Strong (compounds with a percent repellency value of 80-100% were categorized as very strong repellents) |  |
| COc1ccccc1O [BBC011, guaiacol] |  |  |  |  |  | bed bug repellency, in words [3]: repel bed bugs |
| CSC(C)=O [BBC060, methanethiol acetate] | Moderate (Compounds or blends with an attractant activity value of 20-40% were categorized as moderate attractants) | 20 |  |  |  |  |
| N#C/C=C/c1ccccc1 [BBC029, cinnamyl nitrile] |  |  | 92 | 56 | Moderate (Compounds with a percent repellency value of 40-60% were categorized as moderate repellents) | Ind % Rep (percent repellency of the individual compound) [4]: 56% |
| CCC(=O)OCCC(C)C [BBC051, isoamyl propionate] | Mild (Compounds or blends with an attractant activity value of 10-20% were categorized as mild attractants) | 10 |  |  |  |  |
